In patent US4740233A, “Substituted 1,2,4-triazolo[1,5-a]-pyrimidine-2-sulfonamides and compositions and methods of controlling undesired vegetation and suppressing the nitrification of ammonium nitrogen in soil” (The Dow Chemical Company, priority 1986, dated 1988):

Assays:
[1] = system: cotton; assay: Postemergent control of plant species; assay type: in vivo, Gossypium spp.; conditions: Gossypium hirsutum, post-emergence, 336 h, read-out: percent postemergent control
How it was run: (§1)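 Compounds were taken up in acetone at twice the final concentration, then diluted with an equal volume of water containing 0.1% surfactant and sprayed onto greenhouse-grown plants at the 2-4 leaf stage. Plants were kept about two weeks under growth conditions; control is growth reduction relative to untreated plants of the same species.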

[2] = system: rape; assay: Postemergent control of plant species; assay type: in vivo, Brassica napus; conditions: Brassica napus, post-emergence, 336 h, read-out: percent postemergent control
How it was run: as §1

[3] = system: soybean; assay: Postemergent control of plant species; assay type: in vivo, Glycine max.; conditions: Glycine max, post-emergence, 336 h, read-out: percent postemergent control
How it was run: as §1

[4] = system: sugar beet; assay: Postemergent control of plant species; assay type: in vivo, Beta saccharifera; conditions: Beta vulgaris, post-emergence, 336 h, read-out: percent postemergent control
How it was run: as §1

[5] = system: cocklebur; assay: Postemergent control of plant species; assay type: in vivo, Xanthium spp.; conditions: Xanthium strumarium, post-emergence, 336 h, read-out: percent postemergent control
Method: In representative operations, each compound to be utilized in a series of tests is dissolved in acetone to one-half of the final volume (twice the final concentration) to be used and the acetone solution in each case is admixed with an equal volume of water containing 0.1 percent by weight of surface active material. The compositions, generally in the nature of an emulsion, were employed to spray separate respective plant species which had been grown to a 2-4 leaf stage in soil of good nutrient content in a greenhouse. The various beds were positioned side by side and exposed to substantially identical conditions of temperature and light. Each bed was maintained so as to prevent any interaction with test compounds in different seed beds. Other plants were left untreated to serve as controls. After treatment, the plants were maintained for about two weeks under greenhouse conditions conducive for good plant growth and watered as necessary. Control refers to the reduction in growth compared to the observed results of the same untreated species.

[6] = system: jimsonweed; assay: Postemergent control of plant species; assay type: in vivo, Datura stramonium; conditions: Datura stramonium, post-emergence, 336 h, read-out: percent postemergent control
How it was run: as §1

[7] = system: annual morning glory; assay: Postemergent control of plant species; assay type: in vivo, Ipomoea spp.; conditions: Ipomoea, post-emergence, 336 h, read-out: percent postemergent control
How it was run: as §1

[8] = system: pigweed; assay: Postemergent control of plant species; assay type: in vivo, Amaranthus spp.; conditions: Amaranthus retroflexus, post-emergence, 336 h, read-out: percent postemergent control
How it was run: as §1

[9] = system: velvetleaf; assay: Postemergent control of plant species; assay type: in vivo, Abutilon theophrasti; conditions: Abutilon theophrasti, post-emergence, 336 h, read-out: percent postemergent control
How it was run: as §1

[10] = system: corn; assay: Postemergent control of plant species; assay type: in vivo, Zea mays; conditions: Zea mays, post-emergence, 336 h, read-out: percent postemergent control
How it was run: as §1

[11] = system: rice; assay: Postemergent control of plant species; assay type: in vivo, Oryza sativa; conditions: Oryza sativa, post-emergence, 336 h, read-out: percent postemergent control
How it was run: as §1

[12] = system: sorghum; assay: Postemergent control of plant species; assay type: in vivo, Sorghum vulgare; conditions: Sorghum, post-emergence, 336 h, read-out: percent postemergent control
How it was run: as §1

[13] = system: wheat; assay: Postemergent control of plant species; assay type: in vivo, Triticum aestivum; conditions: Triticum aestivum, post-emergence, 336 h, read-out: percent postemergent control
How it was run: as §1

[14] = system: barnyardgrass; assay: Postemergent control of plant species; assay type: in vivo, Echinochloa crusgalli; conditions: Echinochloa crus-galli, post-emergence, 336 h, read-out: percent postemergent control
How it was run: as §1

[15] = system: crabgrass; assay: Postemergent control of plant species; assay type: in vivo, Digitaria spp.; conditions: Digitaria sanguinalis, post-emergence, 336 h, read-out: percent postemergent control
How it was run: as §1

[16] = system: yellow foxtail; assay: Postemergent control of plant species; assay type: in vivo, Setaria lutescens; conditions: Setaria, post-emergence, 336 h, read-out: percent postemergent control
How it was run: as §1

[17] = system: johnson grass; assay: Postemergent control of plant species; assay type: in vivo, Sorghum halepense; conditions: Sorghum halepense, post-emergence, 336 h, read-out: percent postemergent control
How it was run: as §1

[18] = system: wild oats; assay: Postemergent control of plant species; assay type: in vivo, Avena fatua; conditions: Avena fatua, post-emergence, 336 h, read-out: percent postemergent control
How it was run: as §1

[19] = system: yellow nutsedge; assay: Postemergent control of plant species; assay type: in vivo, Cyperus esculentus; conditions: Cyperus, post-emergence, 336 h, read-out: percent postemergent control
How it was run: as §1

[20] = system: nitrification of ammonium nitrogen; assay: Suppression of nitrification of ammonium nitrogen in soil; conditions: 27° C.
How it was run: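 Value is % NH4-N remaining after a two-week, 27° C incubation of treated soil held at 1/3 bar tension moisture. Nitrate was measured with an ion-selective electrode after extraction with ammonium sulfate solution and 10 min shaking.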

SMILES | plant injury at 500 ppm [1] | plant injury at 500 ppm [2] | plant injury at 500 ppm [3] | plant injury at 500 ppm [4] | pest or weed control at 500 ppm [5] | pest or weed control at 500 ppm [6] | pest or weed control at 500 ppm [7] | pest or weed control at 500 ppm [8] | pest or weed control at 500 ppm [9] | plant injury at 500 ppm [10] | plant injury at 500 ppm [11] | plant injury at 500 ppm [12] | plant injury at 500 ppm [13] | pest or weed control at 500 ppm [14] | pest or weed control at 500 ppm [15] | pest or weed control at 500 ppm [16] | pest or weed control at 500 ppm [17] | pest or weed control at 500 ppm [18] | pest or weed control at 500 ppm [19] | other results
Cc1cc(C)n2nc(S(=O)(=O)Nc3ccc(F)cc3Cl)nc2n1 [Compound 30] | 0% | 40% | 30% | 0% | 40% | 0% | 60% | 0% | 40% | 0% | 20% | 0% | 0% | 0% | 0% | 0% | 0% | 0% | 0% | % NH4-N Remaining After 2 Weeks Incubation ([20]; 0.01 ppm): 0%; % NH4-N Remaining After 2 Weeks Incubation ([20]; 0.1 ppm): 6%; % NH4-N Remaining After 2 Weeks Incubation ([20]; 1 ppm): 54%; % NH4-N Remaining After 2 Weeks Incubation ([20]; 10 ppm): 81%
Cc1cc(C)n2nc(S(=O)(=O)Nc3c(C)ccc(Cl)c3Cl)nc2n1 [Compound 74] | 70% | 100% | 80% | 100% | 100% | 90% | 80% | 70% | 100% | 0% | 0% | 80% | 0% | 70% | 0% | 60% | 50% | 0% | 95% | –
COC(=O)c1ccc(Cl)c(NS(=O)(=O)c2nc3nc(C)cc(C)n3n2)c1Cl [Compound 82] | 85% | 100% | 85% | 95% | 85% | 90% | 85% | 100% | 85% | 0% | 0% | 0% | 0% | 0% | 0% | 0% | 0% | 0% | 0% | –
Cc1cc(C)n2nc(S(=O)(=O)Nc3c(Cl)cccc3CO)nc2n1 [Compound 93] | 0% | 70% | 90% | 70% | 80% | 80% | 0% | 70% | 20% | 0% | 0% | 0% | 0% | 0% | 0% | 0% | 0% | 0% | 15% | % NH4-N Remaining After 2 Weeks Incubation ([20]; 0.06 ppm): 79%; % NH4-N Remaining After 2 Weeks Incubation ([20]; 0.25 ppm): 57%; % NH4-N Remaining After 2 Weeks Incubation ([20]; 1 ppm): 64%; % NH4-N Remaining After 2 Weeks Incubation ([20]; 4 ppm): 89%
Cc1ccn2nc(S(=O)(=O)Nc3c(F)c(F)cc(F)c3F)nc2n1 [Compound 163] | 0% | 70% | 0% | 0% | 40% | 70% | 0% | 90% | 20% | 0% | 0% | 0% | 0% | 0% | 0% | 50% | 0% | 0% | 0% | –
Cc1cc(C)n2nc(S(=O)(=O)Nc3c(Cl)ccc4ccccc34)nc2n1 [Compound 243] | 80% | 100% | 85% | 95% | 100% | 95% | 80% | 80% | 90% | 75% | 45% | 75% | 20% | 70% | 0% | 75% | 80% | 0% | 95% | –
Cc1ccn2nc(S(=O)(=O)Nc3c(Cl)ccc4ccccc34)nc2n1 [Compound 244] | 100% | 100% | 45% | 100% | 100% | 100% | 90% | 100% | 100% | 40% | 40% | 90% | 20% | 40% | 40% | 95% | 80% | 0% | 90% | –
COC(=O)c1c(NS(=O)(=O)c2nc3nc(C)ccn3n2)c(C)nn1C [Compound 248] | 50% | 100% | 40% | 75% | 0% | 0% | 0% | 0% | 100% | 0% | 50% | 80% | 0% | 0% | 0% | 0% | 0% | 0% | 0% | –
COC(=O)c1nn(C)c(C)c1NS(=O)(=O)c1nc2nc(C)cc(C)n2n1 [Compound 250] | 0% | 70% | 50% | 30% | 50% | 50% | 25% | 40% | 70% | 0% | 0% | 0% | 0% | 0% | 0% | 0% | 0% | 0% | 0% | –
